Test results reported in patent US6858591B2, “Antibiotic AA 896 analogs” (Wyeth Holdings Corporation, priority 2001, dated 2005).
Converted amounts (≈) assume the structure as drawn. Where two headings read alike, the source gives them in different places.

Legend:
Test in all cases: In vitro MIC, broth dilution
Type in all cases: cell-based
P. aeruginosa GC 2214 = details: Pseudomonas aeruginosa, GC2214
C. albicans GC 3066 = details: Candida albicans, GC3066
E. coli GC 4559 = details: Escherichia coli, GC4559
P. aeruginosa GC 4532 = details: Pseudomonas aeruginosa, GC4532
E. coli GC 2203 = details: Escherichia coli, GC2203
E. coli GC 4560 = details: Escherichia coli, GC4560
M. morganii GC 4531 = details: Morganella morganii, GC4531
K. pneumoniae GC 4534 = details: Klebsiella pneumoniae, GC4534
E. faecalis GC 4555 = details: Enterococcus faecalis, GC4555
In short: (§1)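 Broth dilution per NCCLS M7-A recommendations in Mueller-Hinton II medium, inoculum 5×10^5 CFU/ml, antibiotic range 64-0.06 μg/ml. Plates incubated 18 hours at 35° C in ambient air; MIC taken as lowest concentration inhibiting growth.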

S. aureus GC 1131 = details: Staphylococcus aureus, GC1131
In short: as §1

E. faecalis GC 842 = details: Enterococcus faecalis, GC842
In short: as §1

CNS GC 4537 = tested on: CNS GC 4537
In short: as §1

CNS GC 4547 = tested on: CNS GC 4547
In short: as §1

E. faecalis GC 2242 = details: Enterococcus faecalis, GC2242
In short: as §1

CNS GC 4538 = tested on: CNS GC 4538
In short: as §1

S. aureus GC 4536 = details: Staphylococcus aureus, GC4536
In short: as §1

S. aureus GC 2216 = details: Staphylococcus aureus, GC2216
In short: as §1

E. cloacae GC 3783 = details: Enterobacter cloacae, GC3783
E. coli GC 3226 = details: Escherichia coli, GC3226
S. marcescens GC 4077 = details: Serratia marcescens, GC4077
[1] = P. aeruginosa GC 2214, read-out: MIC
[2] = C. albicans GC 3066, read-out: MIC
[3] = P. aeruginosa GC 4532, read-out: MIC
[4] = M. morganii GC 4531, read-out: MIC
[5] = K. pneumoniae GC 4534, read-out: MIC
[6] = E. faecalis GC 4555, read-out: MIC
[7] = S. aureus GC 1131, read-out: MIC
[8] = E. faecalis GC 842, read-out: MIC
[9] = E. faecalis GC 2242, read-out: MIC
[10] = S. aureus GC 4536, read-out: MIC
[11] = S. aureus GC 2216, read-out: MIC
[12] = E. cloacae GC 3783, read-out: MIC
[13] = S. marcescens GC 4077, read-out: MIC

Row | MIC (P. aeruginosa GC 2214; [1]) | MIC (C. albicans GC 3066; [2]) | MIC (E. coli GC 4559; E. coli GC 4559, read-out: MIC) | MIC (P. aeruginosa GC 4532; [3]) | MIC (E. coli GC 2203; E. coli GC 2203, read-out: MIC) | MIC (E. coli GC 4560; E. coli GC 4560, read-out: MIC) | MIC (M. morganii GC 4531; [4]) | MIC (K. pneumoniae GC 4534; [5]) | MIC (E. faecalis GC 4555; [6]) | MIC (S. aureus GC 1131; [7]) | MIC (E. faecalis GC 842; [8]) | MIC (CNS GC 4537; CNS GC 4537, read-out: MIC) | MIC (CNS GC 4547; CNS GC 4547, read-out: MIC) | MIC (E. faecalis GC 2242; [9]) | MIC (CNS GC 4538; CNS GC 4538, read-out: MIC) | MIC (S. aureus GC 4536; [10]) | MIC (S. aureus GC 2216; [11]) | MIC (E. cloacae GC 3783; [12]) | MIC (E. coli GC 3226; E. coli GC 3226, read-out: MIC) | MIC (S. marcescens GC 4077; [13]) | SMILES | other results
1 | 128 µg/mL (≈ 141 µM) | 128 µg/mL (≈ 141 µM) | > 128 µg/mL | 128 µg/mL (≈ 141 µM) | > 128 µg/mL | > 128 µg/mL | 128 µg/mL (≈ 141 µM) | > 128 µg/mL | > 128 µg/mL | > 128 µg/mL | > 128 µg/mL | > 128 µg/mL | > 128 µg/mL | 128 µg/mL (≈ 141 µM) | > 128 µg/mL | > 128 µg/mL | > 128 µg/mL | > 128 µg/mL | > 128 µg/mL | > 128 µg/mL | COc1ccc(Cn2c(=O)ccn([C@@H]3OC([C@H](O)[C@H](NCCCNC(=O)[C@H](CC(C)C)NC(=O)[C@H](CCCNC(=N)N)NC(=O)N[C@H](C(=O)O)C(C)C)C(=O)O)[C@@H](O)[C@H]3O)c2=O)cc1 (stereo partly drawn) [Example 50, (2S,6S,9S,16S)-6-(3-{[Amino(imino)methyl]amino}propyl)-16-[(R)-[(3S,4R,5R)-3,4-dihydroxy-5-(3-(4-methoxybenzyl)-2,4-dioxo-3,4-dihydro-1(2H)-pyrimidinyl)tetrahydro-2-furanyl](hydroxy)-methyl]-9-isobutyl-2-isopropyl-4,7,10-trioxo-3,5,8,11,15-pentaazaheptadecane-1,17-dioic acid] | 
2 | 128 µg/mL (≈ 160 µM) | 128 µg/mL (≈ 160 µM) | > 128 µg/mL | 128 µg/mL (≈ 160 µM) | > 128 µg/mL | 128 µg/mL (≈ 160 µM) | 128 µg/mL (≈ 160 µM) | > 128 µg/mL | 128 µg/mL (≈ 160 µM) | > 128 µg/mL | 128 µg/mL (≈ 160 µM) | > 128 µg/mL | > 128 µg/mL | 128 µg/mL (≈ 160 µM) | 128 µg/mL (≈ 160 µM) | > 128 µg/mL | > 128 µg/mL | > 128 µg/mL | > 128 µg/mL | > 128 µg/mL | COc1ccc(Cn2c(=O)ccn([C@@H]3OC([C@H](O)[C@H](NCCCNC(=O)[C@H](CC(C)C)NC(=O)OCc4ccccc4)C(=O)OC(C)(C)C)[C@@H](O)[C@H]3O)c2=O)cc1 (stereo partly drawn) [Example 51, tert-Butyl (5S,12S)-12-[(R)-[(3S,4R,5R)-3,4-dihydroxy-5-(3-(4-methoxybenzyl)-2,4-dioxo-3,4-dihydro-1(2H)-pyrimidinyl)tetrahydro-2-furanyl](hydroxy)methyl]-5-isobutyl-3,6-dioxo-1-phenyl-2-oxa-4,7,11-triazatridecan-13-oate] | 
3 |  |  |  |  |  |  |  |  |  |  |  |  |  |  |  |  |  |  |  |  | COc1ccc(Cn2c(=O)ccn([C@@H]3OC([C@@H](O)[C@H](NCCCNC(=O)[C@@H](NC(=O)OCc4ccccc4)[C@H](C)O)C(=O)OC(C)(C)C)[C@@H](O[Si](C)(C)C(C)(C)C)[C@H]3O[Si](C)(C)C(C)(C)C)c2=O)cc1 (stereo partly drawn) [Example 8, tert-Butyl (5S,12S)-12-[(S)-[(3R,4R,5R)-3,4-bis{[tert-butyl(dimethyl)silyl]oxy}-5-(3-(4-methoxybenzyl)-2,4-dioxo-3,4-dihydro-1(2H)-pyrimidinyl)tetrahydro-2-furanyl](hydroxy)methyl]-5-[(1S)-1-hydroxyethyl]-3,6-dioxo-1-phenyl-2-oxa-4,7,11-triazatridecan-13-oate] | MIC (P. aeruginosa GC 2214): 64 µg/mL (≈ 63.1 µM); MIC (C. albicans GC 3066): 32 µg/mL (≈ 31.5 µM); MIC (E. coli GC 4559): > 128 µg/mL; MIC (P. aeruginosa GC 4532): 64 µg/mL (≈ 63.1 µM); MIC (E. coli GC 2203): 64 µg/mL (≈ 63.1 µM); MIC (E. coli GC 4560): 64 µg/mL (≈ 63.1 µM); MIC (M. morganii GC 4531): 64 µg/mL (≈ 63.1 µM); MIC (K. pneumoniae GC 4534): 64 µg/mL (≈ 63.1 µM); MIC (E. faecalis GC 4555): 64 µg/mL (≈ 63.1 µM); MIC (S. aureus GC 1131): 128 µg/mL (≈ 126 µM); MIC (E. faecalis GC 842): 64 µg/mL (≈ 63.1 µM); MIC (CNS GC 4537): 128 µg/mL (≈ 126 µM); MIC (CNS GC 4547): 128 µg/mL (≈ 126 µM); MIC (E. faecalis GC 2242): 64 µg/mL (≈ 63.1 µM); MIC (CNS GC 4538): 128 µg/mL (≈ 126 µM); MIC (S. aureus GC 4536): 128 µg/mL (≈ 126 µM); MIC (S. aureus GC 2216): 128 µg/mL (≈ 126 µM); MIC (E. cloacae GC 3783): 64 µg/mL (≈ 63.1 µM); MIC (E. coli GC 3226): > 128 µg/mL; MIC (S. marcescens GC 4077): 64 µg/mL (≈ 63.1 µM)
4 | 128 µg/mL (≈ 177 µM) | 128 µg/mL (≈ 177 µM) | > 128 µg/mL | 128 µg/mL (≈ 177 µM) | 128 µg/mL (≈ 177 µM) | 128 µg/mL (≈ 177 µM) | 128 µg/mL (≈ 177 µM) | 128 µg/mL (≈ 177 µM) | 128 µg/mL (≈ 177 µM) | > 128 µg/mL | 128 µg/mL (≈ 177 µM) | > 128 µg/mL | > 128 µg/mL | 128 µg/mL (≈ 177 µM) | > 128 µg/mL | > 128 µg/mL | > 128 µg/mL | 128 µg/mL (≈ 177 µM) | 128 µg/mL (≈ 177 µM) | 128 µg/mL (≈ 177 µM) | CCOC(=O)C(NCCCNC(=O)[C@@H](NC(=O)OCc1ccccc1)C(C)O)C(O)[C@H]1O[C@H](n2ccc(=O)[nH]c2=O)[C@H](OC(C)=O)[C@@H]1OC(C)=O (stereo partly drawn) [Example 31a, Ethyl (5S)-12-[(R)-[(2R,3R,4R,5S)-3,4-bis(acetyloxy)-5-(2,4-dioxo-3,4-dihydro-1(2H)-pyrimidinyl)tetrahydro-2-furanyl](hydroxy)methyl]-5-[(1S)-1-hydroxyethyl]-3,6-dioxo-1-phenyl-2-oxa-4,7,11-triazatridecan-13-oate] | 

Row | SMILES | MIC (P. aeruginosa GC 2214; [1]) | MIC (C. albicans GC 3066; [2]) | MIC (E. coli GC 4559; E. coli GC 4559, read-out: MIC) | MIC (P. aeruginosa GC 4532; [3]) | MIC (E. coli GC 2203; E. coli GC 2203, read-out: MIC) | MIC (E. coli GC 4560; E. coli GC 4560, read-out: MIC) | MIC (M. morganii GC 4531; [4]) | MIC (K. pneumoniae GC 4534; [5]) | MIC (E. faecalis GC 4555; [6]) | MIC (S. aureus GC 1131; [7]) | MIC (E. faecalis GC 842; [8]) | MIC (CNS GC 4537; CNS GC 4537, read-out: MIC) | MIC (CNS GC 4547; CNS GC 4547, read-out: MIC) | MIC (E. faecalis GC 2242; [9]) | MIC (CNS GC 4538; CNS GC 4538, read-out: MIC) | MIC (S. aureus GC 4536; [10]) | MIC (S. aureus GC 2216; [11]) | MIC (E. cloacae GC 3783; [12]) | MIC (E. coli GC 3226; E. coli GC 3226, read-out: MIC) | MIC (S. marcescens GC 4077; [13]) | other results
5 | CCOC(=O)C(NCCCNC(=O)[C@@H](NC(=O)[C@H](CCCNC(=N)N[N+](=O)O)NC(=O)N[C@H](C(=O)OCc1ccccc1)C(C)C)[C@@H](O)C(C)C)C(O)[C@H]1O[C@@H](n2ccc(=O)[nH]c2=O)[C@H](OC(C)=O)[C@@H]1OC(C)=O (stereo partly drawn) [Example 37, 16-Benzyl 2-ethyl (1R,9S,12S,16S)-1-[(2R,3R,4R,5R)-3,4-bis(acetyloxy)-5-(2,4-dioxo-3,4-dihydro-1(2H)-pyrimidinyl)tetrahydro-2-furanyl]-12-(3-{[(2,2-dioxido-2lambda˜1˜-diazanyl)(imino)methyl]amino}propyl)-1-hydroxy-9-[(1S)-hydroxy-2-methylpropyl]-17-methyl-8,11,14-trioxo-3,7,10,13,15-pentaazaoctadecane-2,16-dicarboxylate] | > 128 µg/mL | > 128 µg/mL | > 128 µg/mL | > 128 µg/mL | > 128 µg/mL | > 128 µg/mL | > 128 µg/mL | > 128 µg/mL | > 128 µg/mL | > 128 µg/mL | > 128 µg/mL |  |  | 128 µg/mL |  | > 128 µg/mL | > 128 µg/mL | > 128 µg/mL | > 128 µg/mL | > 128 µg/mL | MIC (CNS GC 4537): > 128 µg/mL; MIC (CNS GC 4547): > 128 µg/mL; MIC (CNS GC 4538): > 128 µg/mL
6 | COc1ccc(Cn2c(=O)ccn([C@@H]3OC([C@H](O)[C@H](NCCCNC(=O)[C@H](C)N)C(=O)OC(C)(C)C)[C@@H](O[Si](C)(C)C(C)(C)C)[C@H]3O[Si](C)(C)C(C)(C)C)c2=O)cc1 (stereo partly drawn) [Example 15, tert-Butyl (2S,3R)-2-[(3-{[(2S)-2-aminopropanoyl]amino}propyl)amino]-3-[(3R,4R,5R)-3,4-bis{[tert-butyl(dimethyl)silyl]oxy}-5-(3-(4-methoxybenzyl)-2,4-dioxo-3,4-dihydro-1(2H)-pyrimidinyl)tetrahydro-2-furanyl]-3-hydroxypropanoate] | 128 µg/mL (≈ 151 µM) | 64 µg/mL (≈ 75.3 µM) | > 128 µg/mL | > 128 µg/mL | > 128 µg/mL | 8 µg/mL (≈ 9.41 µM) | 128 µg/mL (≈ 151 µM) | > 128 µg/mL | 4 µg/mL (≈ 4.7 µM) | 4 µg/mL (≈ 4.7 µM) | 4 µg/mL (≈ 4.7 µM) | 4 µg/mL (≈ 4.7 µM) | 8 µg/mL (≈ 9.41 µM) | 4 µg/mL (≈ 4.7 µM) | 4 µg/mL (≈ 4.7 µM) | 4 µg/mL (≈ 4.7 µM) | 4 µg/mL (≈ 4.7 µM) | > 128 µg/mL | > 128 µg/mL | > 128 µg/mL | 
